Measured values published in article PMC6801448, “The Antioxidant and Antiproliferative Activities of 1,2,3-Triazolyl-L-Ascorbic Acid Derivatives” (International Journal of Molecular Sciences, 2019).
Like-named read-outs stand apart in the source and are kept apart here.

How the values were obtained:
[1] = test system: HepG2 (hepatocellular carcinoma); experiment: MTT proliferation assay, HepG2; assay type: cell-based; conditions: Homo sapiens, 72 h
Description: (§1) Human tumor cell lines HeLa (cervical carcinoma), SW620 (colorectal adenocarcinoma, metastatic), A549 (lung adenocarcinoma), MCF−7 (breast adenocarcinoma), CFPAC-1 (pancreatic adenocarcinoma, metastatic), HCT-116 (colorectal carcinoma), and HepG2 (hepatocellular carcinoma), and normal cell lines HFF-1 (foreskin fibroblasts) and WI-38 (immortalized human lung fibroblast), were from the US American Type Culture Collection (ATCC, Manassas, VA, USA). Cells were cultured in a liquid nutrient medium (Dulbecco’s Modified Eagle Medium, LONZA, Basel, Switzerland) supplemented with 10% fetal bovine serum (FBS, Gibco, Grand Island, NY, USA), 2 mM L-glutamine (GIBCO, Grand Island, NY, USA), 100 μg/mL penicillin, and 100 μg/mL streptomycin (LONZA, Basel, Switzerland), in an incubator (NÜVE, Ankara, Turkey), at a humid atmosphere with 5% CO2 at 37 °C. Trypsin/EDTA Solution (Lonza, Basel, Switzerland), was used for cell passaging and cell detachment.
(§2) Adherent cells were seeded on 96 well microtiter plates (Falcon, New York, NY, USA) at a seeding density of 5000 cells per well, added in 150 μL of cell suspension in a nutrient medium. 24 h after seeding, cells were treated with compound 4b–4g, 4i, 4k–4t, 4v, 7c–7g, and 7i–7q dilutions in the range of 0.01 μM to 100 μM. L-ascoric acid (Sigma Aldrich, Darmstadt, Germany) and Carboxyamidotriazole (Sigma Aldrich, Darmstadt, Germany) were used as control compounds. Incubation of the cells with the compounds were performed for 72 h in a 5% CO2, in humid atmosphere at 37 °C. After incubation, nutrient medium was removed and 40 μL of the MTT reagent ([…]-2,5-diphenyltetrazole bromide (Invitrogen, Carlsbad, CA, USA) was added to each well. 3 h after incubation, 160 μL of DMSO (VWR CHEMICALS, Radnor, PA, USA) were added to each well to dissolve the crystals of purple formazane. The absorbance was measured at 570 nm (TECAN SUNRISE Microtiter plate reader (Männedorf, Switzerland). The experimentally measured optical densities (OD) were converted to the PG (percentage of growth), using the formulas according to the protocol assumed by NIH (National Institute of Health). The IC50 values (concentration causing 50% cell growth inhibition) for each compound were calculated by regression analysis of the survival count curve of the concentrations of the tested compounds. The results were processed in Excel 2010 (Microsoft, Redmond, WA, USA).

[2] = DPPH radical scavenging assay; assay type: biochemical
Description: Likewise, L-ASA, the 1,2,3-triazole L-ASA derivatives with free C2-OH and C3-OH groups were expected to be potent antioxidants. Therefore, they were tested as radical scavengers by reaction with the stable free radical 2,2-diphenyl-1-picrylhydrazyl (DPPH^•).
Antioxidant capacity of selected compounds was assessed by 2,2-diphenyl-1-picrylhydrazyl assay (DPPH, Sigma Aldrich, Darmstadt, Germany), in which the antioxidant activity of compounds is measured by the reaction between a stable radical of 1,1-diphenyl-2-picylhydrazil (DPPH^•) and a selected compound according to the manufacturer recommendations. Briefly, compounds 4b–4e, 4f–4h, 4k, 4l, 4o, 4p–4s, 4t, 4v, 7c–7f, 7i–7n, 7q, 7p, and 7o were tested at 0.06, 0.12, 0.18, 0.23, 0.25, and 0.28 mM. L-ascorbic acid was used as the reference compound. Absorbance was measured 5 and 10 min after incubation of the compounds with the DPPH reagent. The reduction of DPPH with selected compounds was monitored by measuring the absorbance at a wavelength of 517 nm on the monochromator (Infinite M200 PRO, TECAN, Männedorf, Switzerland).

[3] = test system: SW620 (colorectal adenocarcinoma, metastatic); experiment: MTT proliferation assay, SW620; assay type: cell-based; conditions: Homo sapiens, SW-620, 72 h
Description: as §1, §2

[4] = test system: HeLa (cervical carcinoma); experiment: MTT proliferation assay, HeLa; assay type: cell-based; conditions: Homo sapiens, 72 h
Description: as §1, §2

[5] = test system: MCF-7 (breast adenocarcinoma); experiment: MTT proliferation assay, MCF-7; assay type: cell-based, Human; conditions: Homo sapiens, MCF7; 72 h, MTT
Description: as §1, §2

[6] = test system: HCT-116 (colorectal carcinoma); experiment: MTT proliferation assay, HCT-116; assay type: cell-based; conditions: Homo sapiens, 72 h
Description: as §1, §2

[7] = test system: CFPAC-1 (ductal pancreatic adenocarcinoma); experiment: MTT proliferation assay, CFPAC-1; assay type: cell-based; conditions: Homo sapiens, 72 h
Description: as §1, §2

WI-38 (lung fibroblasts) = experiment: MTT proliferation assay, WI-38; assay type: cell-based; conditions: Homo sapiens, 72 h, normal lung fibroblasts
Description: as §1, §2

[8] = test system: A549 (lung adenocarcinoma); experiment: MTT proliferation assay, A549; assay type: cell-based; conditions: Homo sapiens, 72 h
Description: as §1, §2

[9] = 5 min treatment, read-out: IC50 of DPPH• inhibition, Treatm. 5 min
[10] = 10 min treatment, read-out: IC50 of DPPH• inhibition, Treatm. 10 min

Row | Compound | IC50 [1] | IC50 [2, 9] | IC50 [2, 10] | IC50 [3] | IC50 [4] | melting point | IC50 [5] | IC50 [6] | IC50 [7] | IC50 [8] | IC50 (WI-38 (lung fibroblasts))
1 | O=C1O/C(=C\Cn2cc(-c3cccc(O)c3)nn2)C(O)=C1O [Compound 7j, 4,5-didehydro-5,6-dideoxy-6-[4-(3-hydroxyphenyl)-1,2,3-triazole-1-yl]-L-ascorbic acid] | > 100 µM |  |  | > 100 µM | > 100 µM | 155 to 157 °C | > 100 µM | > 100 µM | > 100 µM | > 100 µM | > 100 µM
2 | CCCCCc1ccc(-c2cn(C/C=C3\OC(=O)C(O)=C3O)nn2)cc1 [Compound 7k, 4,5-didehydro-5,6-dideoxy-6-[4-(4-pentylphenyl)-1,2,3-triazole-1-yl]-L-ascorbic acid] | > 100 µM |  |  | > 100 µM | > 100 µM | 230 to 232 °C | > 100 µM | > 100 µM | > 100 µM | > 100 µM | > 100 µM
3 | O=C1O/C(=C\Cn2cc(C3CC3)nn2)C(O)=C1O [Compound 7l, 6-[4-cyclopropyl-1,2,3-triazole-1-yl]-4,5-didehydro-5,6-dideoxy-L-ascorbic acid] | > 100 µM | 200 ± 10 µM | 200 µM | > 100 µM | > 100 µM | 176 to 178 °C | > 100 µM | > 100 µM | > 100 µM | > 100 µM | > 100 µM
4 | CCCCc1cn(C/C=C2\OC(=O)C(O)=C2O)nn1 [Compound 7m, 6-[4-butyl-1,2,3-triazole-1-yl]-4,5-didehydro-5,6-dideoxy-L-ascorbic acid] | > 100 µM | 200 µM | 190 µM | > 100 µM | > 100 µM | 180 to 183 °C | > 100 µM | > 100 µM | > 100 µM | > 100 µM | > 100 µM
5 | CCCCCCCCCCc1cn(C/C=C2\OC(=O)C(O)=C2O)nn1 [Compound 7n, 6-(4-decyl-1,2,3-triazol-1-il)-4,5-didehydro-5,6-dideoxy-L-ascorbic acid] | > 100 µM | 140 µM | 100 µM | > 100 µM | > 100 µM | 169 to 171 °C | > 100 µM | > 100 µM | > 100 µM | > 100 µM | > 100 µM
6 | CC(C)(C)c1cn(C/C=C2\OC(=O)C(O)=C2O)nn1 [Compound 7o, 6-[4-tert-butyl-1,2,3-triazole-1-yl]-4,5-didehydro-5,6-dideoxy-L-ascorbic acid] | > 100 µM | 200 µM | 200 µM | > 100 µM | > 100 µM | 182 to 184 °C | > 100 µM | > 100 µM | > 100 µM | > 100 µM | > 100 µM
7 | O=C1O/C(=C\Cn2cc(CCCCl)nn2)C(O)=C1O [Compound 7p, 6-[4-chloropropyl-1,2,3-triazole-1-yl]-4,5-didehydro-5,6-dideoxy-L-ascorbic acid] | > 100 µM | 200 µM | 200 µM | > 100 µM | > 100 µM | 160 to 162 °C | > 100 µM | > 100 µM | > 100 µM | > 100 µM | > 100 µM

Second part, led by results:

Row | IC50 [1] | IC50 [2, 9] | IC50 [2, 10] | IC50 [3] | IC50 [4] | melting point | IC50 [5] | IC50 [6] | IC50 [7] | IC50 [8] | Compound | IC50 (WI-38 (lung fibroblasts))
8 | > 100 µM | 270 ± 10 µM | 270 µM | > 100 µM | > 100 µM | ≥ 250 °C | 37.3 µM | > 100 µM | > 100 µM | 98 µM | O=C1O[C@H]([C@@H](O)Cn2cc(CSC(=S)N3CCNCC3)nn2)C(O)=C1O [Compound 4v] | > 100 µM
9 | 9.04 µM |  |  | 0.08 µM | 8.81 µM |  | 0.096 µM |  | 0.14 µM | 2.8 µM | O=c1[nH]cc(F)c(=O)[nH]1 [Compound 5-FU, 5-fluorouracil, reference compound] | 0.94 µM
10 | > 100 µM |  |  | > 100 µM | > 100 µM | ≥ 200 °C | > 100 µM | > 100 µM | > 100 µM | > 100 µM | O=C1O/C(=C\Cn2cc(-c3cc(C(F)(F)F)cc(C(F)(F)F)c3)nn2)C(O)=C1O [Compound 7c, 4,5-didehydro-5,6-dideoxy-(4-(3,5-di-(trifluoromethyl)phenyl)-1,2,3-triazol-1-yl)-L-ascorbic acid] | > 100 µM
11 | > 100 µM | 230 µM | 230 µM | > 100 µM | > 100 µM | ≥ 200 °C | > 100 µM | > 100 µM | > 100 µM | > 100 µM | O=C1O/C(=C\Cn2cc(-c3cc(F)cc(F)c3)nn2)C(O)=C1O [Compound 7d] | > 100 µM
12 | > 100 µM |  |  | > 100 µM | > 100 µM | 219 to 222 °C | > 100 µM | > 100 µM | > 100 µM | > 100 µM | O=C1O/C(=C\Cn2cc(-c3ccc(Br)cc3)nn2)C(O)=C1O [Compound 7e, 6-[4-(4-bromophenyl)-1,2,3-triazole-1-yl]-4,5-didehydro-5,6-dideoxy-L-ascorbic acid] | > 100 µM
13 | > 100 µM | 100 ± 20 µM | 100 ± 20 µM | > 100 µM | > 100 µM | 188 to 192 °C | > 100 µM | > 100 µM | > 100 µM | > 100 µM | Cc1ccc(-c2cn(C/C=C3\OC(=O)C(O)=C3O)nn2)cc1 [Compound 7f, 6-[4-tolyl-1,2,3-triazole-1-yl]-4,5-didehydro-5,6-dideoxy-L-ascorbic acid] | > 100 µM
14 | > 100 µM | > 280 µM | 260 µM | > 100 µM | > 100 µM | 198 to 199 °C | > 100 µM | > 100 µM | > 100 µM | > 100 µM | COc1ccc(-c2cn(C/C=C3\OC(=O)C(O)=C3O)nn2)cc1 [Compound 7g, 4,5-didehydro-5,6-dideoxy-6-[4-(4-methoxyphenyl)-1,2,3-triazole-1-yl]-L-ascorbic acid] | > 100 µM
15 | > 100 µM | 100 ± 50 µM | 100 ± 40 µM | > 100 µM | > 100 µM | 167 to 169 °C | > 100 µM | > 100 µM | > 100 µM | > 100 µM | O=C1O/C(=C\Cn2cc(-c3ccccc3O)nn2)C(O)=C1O [Compound 7i, 4,5-didehydro-5,6-dideoxy-6-[4-(2-hydroxyphenyl)-1,2,3-triazole-1-yl]-L-ascorbic acid] | > 100 µM
